Assay results as given in patent US9044420B2, “Immunogenic compositions and methods of using the compositions for inducing humoral and cellular immune responses” (IMMUNE DESIGN CORP., priority 2011, dated 2015).

Columns and labels:
[1] = tested on: HSV; details: continuous suppressive administration, early intervention; Corey et al. 2004; cited from earlier work
[2] = tested on: Splenic CD4 T cell responses (SIV-Gag DD13 epitope); test: Splenic CD4 T cell responses by ICS after SIV-Gag protein with or without GLA-SE (Example 8); type: in vivo, C57BL/6 mice; details: 5 μg SIV-Gag protein + 5 μg GLA-SE vs SE alone or PBS, i.m. d0/d21, day 5 post-boost
Protocol: C57BL/6 mice (4 per group) were immunized intramuscularly via a prime/boost immunization regimen (d0 prime/d21 boost) with 5 μg of recombinant SIV-Gag protein+5 μg of GLA-SE, SE alone, or PBS. Splenic CD4 T cell responses were measured on day 5 post-boost by ICS for IFN-γ, TNF-α, and IL-2 after ex vivo re-stimulation with SIV-Gag CD4 T cell epitope containing peptide DD13 (amino acids 299-311 of SIV-GAG; DRFYKSLRAEQTD; SEQ ID NO: 45)

Row | Compound | reduction of HSV transmission [1] | Th1 CD4 T cell response after immunization with SIV-Gag recombinant protein [2]
1 | CC(C)[C@H](N)C(=O)OCCOCn1cnc2c(=O)[nH]c(N)nc21 [Valacyclovir] | less than 50% | 
2 | CCCCCCCCCCCCCC(=O)O[C@H](CCCCCCCCCCC)CC(=O)O[C@@H]1[C@@H](NC(=O)C[C@H](CCCCCCCCCCC)OC(=O)CCCCCCCCCCCCC)[C@H](OC[C@H]2O[C@H](O)[C@H](NC(=O)C[C@H](O)CCCCCCCCCCC)[C@@H](OC(=O)C[C@H](O)CCCCCCCCCCC)[C@@H]2O)O[C@H](CO)[C@H]1OP(=O)(O)O [GLA, glucopyranosyl lipid A] |  | required for a robust Th1 CD4 T cell response
